{
  "source": "patent EP0371732A1",
  "about": "“Dopamine-beta-hydroxylase inhibitors” (SMITHKLINE BEECHAM CORPORATION, priority 1988, dated 1990)",
  "key": {"[1]": {"details": "Teresawa et al., Japan. Cir. J. 35, 339 (1971); cited from earlier work"}, "[2]": {"system": "spontaneously hypertensive rats", "assay": "mean arterial blood pressure in spontaneously hypertensive rats, indwelling cannulae in the tail arteries", "type": "in vivo", "details": "50 mg/kg intraperitoneally, compared to vehicle-treated controls", "procedure": "Further, spontaneously hypertensive rats were treated with 1-(2-pyrrylmethyl)-1,3-dihydro-2H-imidazole-2-thione at a dose of 50 mg/kg intraperitoneally, and mean arterial blood pressure was monitored for 250 minutes using indwelling cannulae in the tail arteries. […] The maximal blood pressure reduction was approximately 35-40 mmHg."}, "[3]": {"biological_target": "T1, DBH (Homo sapiens, UniProt P09172)", "T1 sequence (P09172 1-617)": "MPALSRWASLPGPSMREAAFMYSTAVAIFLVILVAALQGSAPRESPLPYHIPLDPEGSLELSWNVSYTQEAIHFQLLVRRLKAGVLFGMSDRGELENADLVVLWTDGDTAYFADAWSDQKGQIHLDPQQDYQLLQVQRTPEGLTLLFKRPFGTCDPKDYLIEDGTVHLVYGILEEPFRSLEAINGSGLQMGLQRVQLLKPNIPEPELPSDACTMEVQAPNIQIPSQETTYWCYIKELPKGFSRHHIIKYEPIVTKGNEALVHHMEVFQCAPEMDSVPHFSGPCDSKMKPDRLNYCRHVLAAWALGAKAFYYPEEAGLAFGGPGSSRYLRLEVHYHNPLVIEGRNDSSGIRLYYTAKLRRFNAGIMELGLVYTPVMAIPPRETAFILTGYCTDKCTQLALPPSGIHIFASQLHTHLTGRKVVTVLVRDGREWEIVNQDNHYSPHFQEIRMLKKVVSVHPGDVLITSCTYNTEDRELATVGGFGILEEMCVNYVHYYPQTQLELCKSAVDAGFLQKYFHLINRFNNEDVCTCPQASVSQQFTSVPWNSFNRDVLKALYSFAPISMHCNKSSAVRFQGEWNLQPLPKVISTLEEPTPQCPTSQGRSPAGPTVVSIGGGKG", "details": "reported by Runti et al.; cited from earlier work"}},
  "data": [
    {"molecule": "CCCCc1ccc(C(=O)O)nc1", "note": "[Fusaric acid]", "values": [
      {"measurement": "toxic effect", "setting": "[1]", "value": "hepatotoxic"}
    ]},
    {"molecule": "S=c1[nH]ccn1Cc1ccc[nH]1", "note": "[1-(2-Pyrrylmethyl)-1,3-dihydro-2H-imidazole-2-thione]", "values": [
      {"measurement": "time to significant blood pressure reductions following treatment", "setting": "[2]", "value": "≤ 30", "unit": "min"},
      {"measurement": "maximal blood pressure reduction", "setting": "[2]; monitored for 250 minutes, lowest blood pressures when monitoring was discontinued", "value": "35-40 mmHg"}
    ]},
    {"molecule": "phenylpicolinic acid", "values": [
      {"measurement": "inhibitory activity relative to fusaric acid", "setting": "[3]", "value": "twice the inhibitory activity of fusaric acid"}
    ]}
  ]
}
